Experimental data as given in patent US10508120B2, “TYK2 inhibitors and uses thereof” (Nimbus Lakshmi, Inc., priority 2017, dated 2019).

Tests used:
[1] = target: human TYK2 (JH2domain-pseudokinase) (Homo sapiens (Human), UniProt P29597); test: TYK2 JH2 Domain Binding Assay (KINOMEscan)
In short: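 Pseudokinase domain binding was measured by qPCR of tagged, bead-retained kinase after 1 h room-temperature competition, with 0.9% DMSO and compound up to 30,000 nM in 3-fold steps. Hill-equation Kd, duplicate.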

Tyk2 kinase domain (DH1) = Tyk2 kinase domain (DH1) (Homo sapiens (Human), UniProt P29597); test: Tyk2 Radioactive Kinase Assay; type: biochemical; conditions: compound at 10 μM; ATP 10 μM; read-out: Tyk2 JH1% Inhibition @ 10 μM
In short: (§1)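 Values are single-concentration percent inhibition figures. They were obtained with 10 μM compound in a radioactivity-based kinase assay run separately on each enzyme.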

JAK2 kinase domain (JH1) = JAK2 kinase domain (JH1) (Homo sapiens (Human), UniProt O60674); test: JAK2 Radioactive Kinase Assay; type: biochemical; conditions: compound at 10 μM; ATP 10 μM; read-out: JAK2 JH1% Inhibition @ 10 μM
In short: as §1

human TYK2 (JH2domain-pseudokinase), sequence (P29597 556-888): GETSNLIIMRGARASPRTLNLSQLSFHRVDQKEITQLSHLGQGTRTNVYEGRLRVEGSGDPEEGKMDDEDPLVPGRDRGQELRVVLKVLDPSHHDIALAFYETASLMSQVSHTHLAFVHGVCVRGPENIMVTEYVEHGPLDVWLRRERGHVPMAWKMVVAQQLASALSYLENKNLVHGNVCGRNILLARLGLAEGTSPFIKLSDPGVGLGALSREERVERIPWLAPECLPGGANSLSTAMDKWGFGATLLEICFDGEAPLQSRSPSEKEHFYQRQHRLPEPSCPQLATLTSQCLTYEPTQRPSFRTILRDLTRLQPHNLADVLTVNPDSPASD
Tyk2 kinase domain (DH1), sequence (P29597 897-1176): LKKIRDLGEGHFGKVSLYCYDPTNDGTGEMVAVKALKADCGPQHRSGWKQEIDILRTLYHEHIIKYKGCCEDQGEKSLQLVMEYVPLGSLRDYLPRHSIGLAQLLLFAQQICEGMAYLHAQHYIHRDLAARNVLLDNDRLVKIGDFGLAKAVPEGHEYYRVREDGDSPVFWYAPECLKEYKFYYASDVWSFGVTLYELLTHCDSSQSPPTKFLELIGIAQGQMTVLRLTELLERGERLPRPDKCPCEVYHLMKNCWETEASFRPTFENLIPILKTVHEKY
JAK2 kinase domain (JH1), sequence (O60674 849-1124): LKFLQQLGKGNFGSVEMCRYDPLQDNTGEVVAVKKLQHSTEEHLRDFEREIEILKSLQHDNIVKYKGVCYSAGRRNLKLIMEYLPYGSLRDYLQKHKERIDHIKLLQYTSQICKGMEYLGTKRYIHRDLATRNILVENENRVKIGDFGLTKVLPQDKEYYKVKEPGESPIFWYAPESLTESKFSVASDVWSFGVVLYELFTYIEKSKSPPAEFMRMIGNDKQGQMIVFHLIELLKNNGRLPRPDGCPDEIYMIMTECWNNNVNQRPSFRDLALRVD

Row | SMILES | Kd [1] [nM] | inhibition at 10 µM (Tyk2 kinase domain (DH1)) [%] | inhibition at 10 µM (JAK2 kinase domain (JH1)) [%]
1 | CNc1cc(Nc2cccnc2OC)nc2c(C(=O)NC3COC3)cnn12 [I-83] | > 10 | < 50 | < 50
2 | CNc1cc(Nc2cccn(-c3ccn(C4CC4)n3)c2=O)nc2c(C(=O)NC3COC3)cnn12 [I-89, 5-((1-(1-cyclopropyl-1H-pyrazol-3-yl)-2-oxo-1,2-dihydropyridin-3-yl)amino)-7-(methylamino)-N-(oxetan-3-yl)pyrazolo[1,5-a]pyrimidine-3-carboxamide] | > 10 | < 50 | < 50
3 | CNc1cc(Nc2cc(Cl)cnc2OC2CCC2)nc2c(C(=O)NC3COC3)cnn12 [I-93, 5-((5-chloro-2-cyclobutoxypyridin-3-yl)amino)-7-(methylamino)-N-(oxetan-3-yl)pyrazolo[1,5-a]pyrimidine-3-carboxamide] | > 10 | < 50 | < 50
4 | CNc1cc(Nc2cccn(-c3ccn(C4CC4)n3)c2=O)nc2c(C(=O)NC3CC3)cnn12 [I-98] | < 0.2 | < 50 | < 50
5 | Cc1cc(Nc2cc(N)n3ncc(C(N)=O)c3n2)c(=O)n(-c2ccnn2C)c1 [I-99] | 1 to 10 | < 50 | < 50
6 | NC(=O)c1cnn2c(N)cc(Nc3cccnc3OC(F)(F)F)nc12 [I-102, 7-amino-5-((2-(trifluoromethoxy)pyridin-3-yl)amino)pyrazolo[1,5-a]-pyrimidine-3-carboxamide] | 0.2 to 1 | 70 to 90 | > 90
7 | CNc1cc(Nc2cccn(-c3cc(C)on3)c2=O)nc2c(C(=O)NC3COC3)cnn12 [I-104] | 1 to 10 | < 50 | < 50
8 | CNc1cc(Nc2cccn(C3CCOC3)c2=O)nc2c(C(N)=O)cnn12 (stereo not drawn) [I-108] | 0.2 to 1 | < 50 | < 50
9 | CNc1cc(Nc2cc(Cl)cnc2O[C@H]2C[C@H](OC)C2)nc2c(C(N)=O)cnn12 [I-111] | 0.2 to 1 | < 50 | < 50
10 | CNc1cc(Nc2cc(N3CCCC3)nc(C(F)(F)F)c2)nc2c(C(N)=O)cnn12 [I-112] | 1 to 10 | < 50 | < 50
11 | Nc1cc(Nc2cccnc2OC(F)(F)F)nc2c(C(=O)NC3CC3)cnn12 [I-113, 7-amino-N-cyclopropyl-5-((2-(trifluoromethoxy)pyridin-3-yl)amino)pyrazolo[1,5-a]pyrimidine-3-carboxamide] | 1 to 10 | > 90 | > 90
12 | CNc1cc(Nc2cccn(-c3ccc(F)cn3)c2=O)nc2c(C(=O)NC3CC3)cnn12 [I-116] | < 0.2 | < 50 | < 50
13 | CCOc1ccc(-n2cccc(Nc3cc(NC)n4ncc(C(=O)NC5CC5)c4n3)c2=O)nn1 [I-118] | 0.2 to 1 | < 50 | < 50
14 | NC(=O)c1cnn2c(N)cc(Nc3cc(N4CCCC4)nc(C(F)(F)F)c3)nc12 [I-120] | 1 to 10 | < 50 | < 50
15 | CNc1cc(Nc2cccn(-c3ccnc(C)n3)c2=O)nc2c(C(=O)NC3CC3)cnn12 [I-125] | < 0.2 | < 50 | < 50
16 | CNc1cc(Nc2cccn(-c3ccc(C(=O)N4CCCC4)cn3)c2=O)nc2c(C(=O)NC3CC3)cnn12 [I-129] | < 0.2 | < 50 | < 50
17 | CNc1cc(Nc2ccnn(-c3ccc(F)cc3)c2=O)nc2c(C(=O)N[C@H]3C[C@H]3F)cnn12 [I-134] | 0.2 to 1 | < 50 | < 50
18 | CNc1cc(Nc2cccn(-c3ccc(C(=O)N4CCC4)cn3)c2=O)nc2c(C(=O)N[C@H]3C[C@H]3F)cnn12 [I-142] | < 0.2 | < 50 | < 50
19 | CNc1cc(Nc2cc(Cl)cnc2OC(C)C)nc2c(C(=O)N[C@H]3C[C@H]3F)cnn12 [I-148] | 0.2 to 1 | < 50 | < 50
20 | CNc1cc(Nc2cc(Cl)cnc2OC(C)C)nc2c(C(=O)NC3CCC3)cnn12 [I-149] | 1 to 10 | < 50 | < 50
21 | CNc1cc(Nc2cc(Cl)cnc2OC(C)C)nc2c(C(=O)NC3CC3)cnn12 [I-150] | 0.2 to 1 | < 50 | < 50
22 | CNc1cc(Nc2cccnc2OC(F)F)nc2c(C(N)=O)cnn12 [I-152] | 0.2 to 1 | < 50 | < 50
23 | CNc1cc(Nc2cccn(-c3cccc(C(C)(C)O)n3)c2=O)nc2c(C(=O)NC3CC3)cnn12 [I-155] | < 0.2 | < 50 | < 50
24 | CNc1cc(Nc2cccn(-c3nccs3)c2=O)nc2c(C(=O)NC3CC3)cnn12 [I-157] | < 0.2 | < 50 | < 50
25 | CNc1cc(Nc2cccn([C@H]3CC[C@H](O)CC3)c2=O)nc2c(C(=O)N[C@H]3C[C@H]3F)cnn12 [I-166] | < 0.2 | < 50 | < 50
26 | CNc1cc(Nc2cccn([C@H]3CC[C@H](O)CC3)c2=O)nc2c(C(=O)NC3CC3)cnn12 [I-167] | < 0.2 | < 50 | < 50
27 | CNc1cc(Nc2cccnc2OC2CCC2)nc2c(C(=O)NC3CCC3)cnn12 [I-168] | 0.2 to 1 | < 50 | < 50
28 | CNc1cc(Nc2cccnc2OC2CCC2)nc2c(C(=O)NC3CC3)cnn12 [I-169] | 0.2 to 1 | < 50 | < 50
29 | CNc1cc(Nc2cccnc2O[C@@H]2CCOC2)nc2c(C(=O)NC3CCC3)cnn12 [I-171] | 0.2 to 1 | < 50 | < 50

The next lines start with the values.

Row | Kd [1] [nM] | inhibition at 10 µM (Tyk2 kinase domain (DH1)) [%] | inhibition at 10 µM (JAK2 kinase domain (JH1)) [%] | SMILES
30 | 1 to 10 | < 50 | < 50 | NC(=O)c1cnn2c(N)cc(Nc3cc(Cl)cnc3OC3CCOC3)nc12 (stereo not drawn) [I-82, 7-amino-5-((5-chloro-2-((tetrahydrofuran-3-yl)oxy)pyridin-3-yl)amino) pyrazolo[1,5-a]pyrimidine-3-carboxamide]
31 | 0.2 to 1 | < 50 | < 50 | CNc1cc(Nc2cccnc2OC(F)(F)F)nc2c(C(=O)NC3CC3)cnn12 [I-90]
32 | < 0.2 | < 50 | < 50 | CNc1cc(Nc2cccnc2OC(F)(F)F)nc2c(C(N)=O)cnn12 [I-91]
33 | > 10 | < 50 | < 50 | CNc1cc(Nc2cccnc2OC(F)(F)F)nc2c(C(=O)NC3COC3)cnn12 [I-92]
34 | 0.2 to 1 | < 50 | < 50 | CNc1cc(Nc2cc(Cl)cnc2O[C@H]2C[C@@H](OC)C2)nc2c(C(N)=O)cnn12 [I-96]
35 | 1 to 10 | < 50 | < 50 | CO[C@H]1C[C@@H](Oc2ncc(Cl)cc2Nc2cc(N)n3ncc(C(N)=O)c3n2)C1 [I-97]
36 | 1 to 10 | < 50 | < 50 | NC(=O)c1cnn2c(N)cc(Nc3cccn(C4CCN(CC(F)F)CC4)c3=O)nc12 [I-100]
37 | > 10 | < 50 | < 50 | Nc1cc(Nc2cccc(N3CCCC3=O)n2)nc2c(C(=O)NC3COC3)cnn12 [I-101, 7-amino-N-(oxetan-3-yl)-5-((6-(2-oxopyrrolidin-1-yl)pyridin-2-yl)amino)pyrazolo[1,5-a]pyrimidine-3-carboxamide]
38 | > 10 | < 50 | < 50 | Nc1cc(Nc2cccnc2OC(F)(F)F)nc2c(C(=O)NC3COC3)cnn12 [I-103, 7-amino-N-(oxetan-3-yl)-5-((2-(trifluoromethoxy)pyridin-3-yl)amino)pyrazolo[1,5-a]pyrimidine-3-carboxamide]
39 | > 10 | < 50 | < 50 | CNc1cc(Nc2cccn(-c3ccc(F)cc3)c2=O)nc2c(C(=O)NC3COC3)cnn12 [I-109]
40 | 1 to 10 | < 50 | < 50 | CNc1cc(Nc2cc(C)cn(-c3cnn(C4CC4)c3C)c2=O)nc2c(C(N)=O)cnn12 [I-114]
41 | 1 to 10 | < 50 | < 50 | CO[C@H]1C[C@H](Oc2ncc(Cl)cc2Nc2cc(N)n3ncc(C(N)=O)c3n2)C1 [I-119]
42 | < 0.2 | < 50 | < 50 | CNc1cc(Nc2cccn(-c3ccc(C(=O)N4CCCC4)cn3)c2=O)nc2c(C(=O)N[C@H]3C[C@H]3F)cnn12 [I-128]
43 | < 0.2 | < 50 | < 50 | CNc1cc(Nc2cccn(-c3cccc(C)n3)c2=O)nc2c(C(=O)NC3CCC3)cnn12 [I-130, N-cyclobutyl-5-((6′-methyl-2-oxo-2H-[1,2′-bipyridin]-3-yl)amino)-7-(methylamino)pyrazolo[1,5-a]pyrimidine-3-carboxamide]
44 | < 0.2 | < 50 | < 50 | CNc1cc(Nc2cccn(-c3ccn(C)n3)c2=O)nc2c(C(=O)N[C@H]3C[C@H]3F)cnn12 [I-140]
45 | 0.2 to 1 | < 50 | < 50 | CNc1cc(Nc2cccnc2OC(C)C)nc2c(C(=O)NC3CC3)cnn12 [I-146]
46 | 0.2 to 1 | < 50 | < 50 | CNc1cc(Nc2cc(C)cn(-c3cnn(C4CC4)c3C)c2=O)nc2c(C(=O)NC3CCC3)cnn12 [I-159]
